Results taken from publication PMC10385824, “Antiproliferative and Tubulin-Destabilising Effects of 3-(Prop-1-en-2-yl)azetidin-2-Ones and Related Compounds in MCF-7 and MDA-MB-231 Breast Cancer Cells” (Pharmaceuticals, 2023).
Read-outs that look alike come from different tables or passages of the source.

Assays:
MCF-7 = assay: cells; conditions: Homo sapiens, MCF7, 48 h
OVCAR-4 = assay: NCI-60 SRB screen, ovarian cancer; format: cell-based, human; conditions: Homo sapiens
COLO 205 = assay: NCI-60 SRB screen, colon cancer; format: cell-based, human; conditions: Homo sapiens
IGROV1 = assay: NCI-60 SRB screen, ovarian cancer; format: cell-based, human; conditions: Homo sapiens
SR = assay: NCI-60 SRB screen, leukemia; format: cell-based, human; conditions: Homo sapiens, 48 h
[1] = test system: NCI 60 human cancer cell line panel; assay: NCI 60 cell line screen (SRB), panel values; conditions: for CC50: read-out: Mean LC50; for IC (TGI (total growth inhibition)): read-out: Mean TGI
LOX IMVI = assay: NCI-60 SRB screen, melanoma; format: cell-based, human; conditions: Homo sapiens, 48 h
SK-MEL-5 = assay: NCI-60 SRB screen, melanoma; format: cell-based, human; conditions: Homo sapiens
MDA-MB-231/ATCC = assay: NCI-60 SRB screen, breast cancer; format: cell-based, human; conditions: Homo sapiens
PC-3 = assay: NCI-60 SRB screen, prostate cancer; format: cell-based, human; conditions: Homo sapiens
HCT-2998 = assay: NCI-60 SRB screen, colon cancer; format: cell-based, human; conditions: Homo sapiens, 48 h
K-562 = assay: NCI-60 SRB screen, leukemia; format: cell-based, human; conditions: Homo sapiens, K562, 48 h
HOP-92 = assay: NCI-60 SRB screen, non-small cell lung cancer; format: cell-based, human; conditions: Homo sapiens
SK-MEL-28 = assay: NCI-60 SRB screen, melanoma; format: cell-based, human; conditions: Homo sapiens
CAKI-1 = assay: NCI-60 SRB screen, renal cancer; format: cell-based, human; conditions: Homo sapiens
NCI-H23 = assay: NCI-60 SRB screen, non-small cell lung cancer; format: cell-based, human; conditions: Homo sapiens
KM12 = assay: NCI-60 SRB screen, colon cancer; format: cell-based, human; conditions: Homo sapiens
SNB-19 = assay: NCI-60 SRB screen, CNS cancer; format: cell-based, human; conditions: Homo sapiens
NCI-H552 = assay: NCI-60 SRB screen, non-small cell lung cancer; format: cell-based, human; conditions: Homo sapiens, 48 h
U251 = assay: NCI-60 SRB screen, CNS cancer; format: cell-based, human; conditions: Homo sapiens
SK-OV-3 = assay: NCI-60 SRB screen, ovarian cancer; format: cell-based, human; conditions: Homo sapiens
SF539 = assay: NCI-60 SRB screen, CNS cancer; format: cell-based, human; conditions: Homo sapiens
MOLT-4 = assay: NCI-60 SRB screen, leukemia; format: cell-based, human; conditions: Homo sapiens
UO-31 = assay: NCI-60 SRB screen, renal cancer; format: cell-based, human; conditions: Homo sapiens
EKVX = assay: NCI-60 SRB screen, non-small cell lung cancer; format: cell-based, human; conditions: Homo sapiens, 48 h
NCI-H226 = assay: NCI-60 SRB screen, non-small cell lung cancer; format: cell-based; conditions: Homo sapiens
SW-620 = assay: NCI-60 SRB screen, colon cancer; format: cell-based, human; conditions: Homo sapiens
SN12C = assay: NCI-60 SRB screen, renal cancer; format: cell-based, human; conditions: Homo sapiens, 48 h
TK-10 = assay: NCI-60 SRB screen, renal cancer; format: cell-based, human; conditions: Homo sapiens
HCT-15 = assay: NCI-60 SRB screen, colon cancer; format: cell-based, human; conditions: Homo sapiens
A549/ATCC = assay: NCI-60 SRB screen, non-small cell lung cancer; format: cell-based, human; conditions: Homo sapiens
ACHN = assay: NCI-60 SRB screen, renal cancer; format: cell-based, human; conditions: Homo sapiens, 48 h
A498 = assay: NCI-60 SRB screen, renal cancer; format: cell-based, human; conditions: Homo sapiens
[2] = Homo sapiens, 60 cell, read-out: Mean GI50, mean over all NCI 60 cell lines
[3] = five dose 0.01–100 µM, read-out: GI50

Question: For `C=CC=CC1C(=O)N(c2cc(OC)c(OC)c(OC)c2)C1c1ccc(OC)cc1` (centres unmarked) [11h, 3-(Buta-1,3-dienyl)-4-(4-methoxyphenyl)-1-(3,4,5-trimethoxyphenyl)azetidin-2-one], which GI50 (MCF-7) is on record?
Answer: Its GI50 is 33.5 nM.

Question: What about the GI50 (OVCAR-4; OVCAR-4, 48 h) of the same molecule?
Answer: Its GI50 is 37.3 nM.

Question: And the GI50 (COLO 205; COLO 205, 48 h)?
Answer: The GI50 was 26.5 nM.

Question: What about the GI50 (IGROV1; IGROV-1, 48 h) of the same molecule?
Answer: Its GI50 is 50.7 nM.

Question: And the GI50 (SR)?
Answer: The GI50 was 35.6 nM.

Question: And the GI50 [1, 2]?
Answer: Its GI50 is less than 91.2 nM.

Question: What about the CC50 ([1]; Homo sapiens, 60 cell) of the same molecule?
Answer: Its CC50 is 77600 nM.

Question: What about the IC (TGI (total growth inhibition)) ([1]; Homo sapiens, 60 cell) of the same molecule?
Answer: The IC (TGI (total growth inhibition)) was 8910 nM.

Question: And the GI50 ([1]; read-out: Mean GI50, mean over all NCI 60 cell lines)?
Answer: Its GI50 is 58.9 nM.

Question: What about the GI50 (LOX IMVI) of the same molecule?
Answer: Its GI50 is 32.7 nM.

Question: What about the GI50 (SK-MEL-5; SK-MEL-5, 48 h) of the same molecule?
Answer: Its GI50 is 26 nM.

Question: What about the GI50 (MDA-MB-231/ATCC; MDA-MB-231, 48 h) of the same molecule?
Answer: The GI50 was 29.6 nM.

Question: What about the IC50 (MDA-MB-231/ATCC; MDA-MB-231, 48 h, read-out: Antiproliferative Activity IC50) of the same molecule?
Answer: Its IC50 is 31.1 nM.

Question: What about the GI50 (PC-3; PC-3, 48 h) of the same molecule?
Answer: The GI50 was 40.4 nM.

Question: And the GI50 (HCT-2998)?
Answer: The GI50 was 30 nM.

Question: What about the GI50 (K-562) of the same molecule?
Answer: The GI50 was 41 nM.

Question: What about the GI50 (HOP-92; HOP-92, 48 h) of the same molecule?
Answer: The GI50 was 24.4 nM.

Question: And the GI50 (SK-MEL-28; SK-MEL-28, 48 h)?
Answer: Its GI50 is 16000 nM.

Question: And the GI50 (CAKI-1; CAKI-1, 48 h)?
Answer: The GI50 was 58.9 nM.

Question: What about the GI50 (NCI-H23; NCI-H23, 48 h) of the same molecule?
Answer: The GI50 was 32.1 nM.

Question: What about the GI50 (KM12; KM12, 48 h) of the same molecule?
Answer: The GI50 was 30.4 nM.

Question: And the GI50 (SNB-19; SNB-19, 48 h)?
Answer: Its GI50 is 65.4 nM.

Question: And the GI50 (NCI-H552)?
Answer: Its GI50 is 15.1 nM.

Question: And the GI50 (U251; U-251, 48 h)?
Answer: The GI50 was 32.2 nM.

Question: And the GI50 (SK-OV-3; SK-OV-3, 48 h)?
Answer: Its GI50 is 37.3 nM.

Question: And the GI50 (SF539; SF-539, 48 h)?
Answer: The GI50 was 33.2 nM.

Question: What about the GI50 (MOLT-4; MOLT-4, 48 h) of the same molecule?
Answer: The GI50 was 36.9 nM.

Question: And the GI50 (UO-31; UO-31, 48 h)?
Answer: Its GI50 is 216 nM.

Question: And the GI50 (EKVX)?
Answer: The GI50 was 83.4 nM.

Question: What about the GI50 (NCI-H226; NCI-H226, 48 h) of the same molecule?
Answer: The GI50 was 76.8 nM.

Question: And the GI50 (SW-620; SW-620, 48 h)?
Answer: Its GI50 is 43.8 nM.

Question: And the GI50 (SN12C)?
Answer: The GI50 was 50.8 nM.

Question: And the GI50 (TK-10; TK-10, 48 h)?
Answer: Its GI50 is 61.7 nM.

Question: And the GI50 (HCT-15; HCT-15, 48 h)?
Answer: The GI50 was 40.5 nM.

Question: What about the GI50 (A549/ATCC; A549, 48 h) of the same molecule?
Answer: Its GI50 is 36.4 nM.

Question: What about the GI50 (ACHN) of the same molecule?
Answer: The GI50 was 60.7 nM.

Question: And the GI50 (A498; A498, 48 h)?
Answer: Its GI50 is 18.3 nM.

Question: Which results are given for `COc1ccc(C2C(C(C)C)C(=O)N2c2cc(OC)c(OC)c(OC)c2)cc1OP(=O)(O)O` (centres unmarked) [15b, 5-(3-Isopropyl-1-(3,4,5-trimethoxyphenyl)-4-oxoazetidin-2-yl)-2-methoxyphenyl dihydrogen phosphate]?
Answer: GI50 (MCF-7): 244 nM; GI50 (OVCAR-4; OVCAR-4, five dose 0.01–100 µM, 48 h, read-out: GI50): 282 nM; GI50 (COLO 205; COLO 205, five dose 0.01–100 µM, 48 h, read-out: GI50): 1230 nM; GI50 (IGROV1; IGROV-1, IGROV1, five dose 0.01–100 µM, 48 h, read-out: GI50): 434 nM; GI50 (SR; [3]): 324 nM; GI50 [1, 2]: 525 nM; CC50 ([1]; Homo sapiens, 60 cell): 93300 nM; IC (TGI (total growth inhibition)) ([1]; Homo sapiens, 60 cell): 44700 nM; GI50 (LOX IMVI; [3]): 328 nM; GI50 (SK-MEL-5; SK-MEL-5, five dose 0.01–100 µM, 48 h, read-out: GI50): 164 nM; GI50 (MDA-MB-231/ATCC; MDA-MB-231/ATCC, five dose 0.01–100 µM, 48 h, read-out: GI50): 215 nM; GI50 (PC-3; PC-3, five dose 0.01–100 µM, 48 h, read-out: GI50): 278 nM; GI50 (HCT-2998; HCT-2998, five dose 0.01–100 µM, read-out: GI50): 452 nM; GI50 (K-562; read-out: GI50): 374 nM; GI50 (HOP-92; HOP-92, five dose 0.01–100 µM, 48 h, read-out: GI50): 11200 nM; GI50 (SK-MEL-28; SK-MEL-28, five dose 0.01–100 µM, 48 h, read-out: GI50): 389 nM; GI50 (CAKI-1; CAKI-1, five dose 0.01–100 µM, 48 h, read-out: GI50): 320 nM; GI50 (NCI-H23; NCI-H23, five dose 0.01–100 µM, 48 h, read-out: GI50): 368 nM; GI50 (KM12; KM12, five dose 0.01–100 µM, 48 h, read-out: GI50): 180 nM; GI50 (SNB-19; SNB-19, five dose 0.01–100 µM, 48 h, read-out: GI50): 477 nM; GI50 (NCI-H552; NCI-H552, five dose 0.01–100 µM, read-out: GI50): 237 nM; GI50 (U251; U-251, U251, five dose 0.01–100 µM, 48 h, read-out: GI50): 276 nM; GI50 (SK-OV-3; SK-OV-3, five dose 0.01–100 µM, 48 h, read-out: GI50): 416 nM; GI50 (SF539; SF-539, SF539, five dose 0.01–100 µM, 48 h, read-out: GI50): 132 nM; GI50 (MOLT-4; MOLT-4, five dose 0.01–100 µM, 48 h, read-out: GI50): 493 nM; GI50 (UO-31; UO-31, five dose 0.01–100 µM, 48 h, read-out: GI50): 538 nM; GI50 (NCI-H226; NCI-H226, five dose 0.01–100 µM, 48 h, read-out: GI50): > 100000 nM; GI50 (SW-620; SW-620, five dose 0.01–100 µM, 48 h, read-out: GI50): 373 nM; GI50 (SN12C; [3]): 463 nM; GI50 (TK-10; TK-10, five dose 0.01–100 µM, 48 h, read-out: GI50): 695 nM; GI50 (HCT-15; HCT-15, five dose 0.01–100 µM, 48 h, read-out: GI50): 298 nM; GI50 (A549/ATCC; A549/ATCC, five dose 0.01–100 µM, 48 h, read-out: GI50): 353 nM; GI50 (ACHN; [3]): 359 nM; GI50 (A498; A498, five dose 0.01–100 µM, 48 h, read-out: GI50): 104 nM
